According to the kinase profiling compilation of Christmann-Franck et al. (2016):

Experiments:
Assay in all cases: radiometric filter-binding kinase assay
[1] = test system: AKT2 (human), P31751 [S474D]
BTK (human) = BTK (human) (UniProt Q06187)
CDK2 CCNA2 (human) = CDK2 CCNA2 (human) (UniProt P20248+P24941)
CHEK2 (human) = CHEK2 (human) (UniProt O96017)
CSK (human) = CSK (human) (UniProt P41240)
CSNK1D (human) = CSNK1D (human) (UniProt P48730)
EPHA4 (human) = EPHA4 (human) (UniProt P54764)
EPHB1 (human) = EPHB1 (human) (UniProt P54762)
EPHB4 (human) = EPHB4 (human) (UniProt P54760)
FLT1 (human) = FLT1 (human) (UniProt P17948)
IKBKB (human) = IKBKB (human) (UniProt O14920)
IKBKE (human) = IKBKE (human) (UniProt Q14164)
INSRR (human) = INSRR (human) (UniProt P14616)
MAP2K1 (human) = MAP2K1 (human) (UniProt Q02750)
MAPK1 (human) = MAPK1 (human) (UniProt P28482); conditions: compound 10.0 µM
MAPK14 (human) = MAPK14 (human) (UniProt Q16539)
MAPK15 (human) = MAPK15 (human) (UniProt Q8TD08)
MAPK3 (human) = MAPK3 (human) (UniProt P27361)
MAPKAPK3 (human) = MAPKAPK3 (human) (UniProt Q16644)
MKNK2 (human) = MKNK2 (human) (UniProt Q9HBH9)
NEK2 (human) = NEK2 (human) (UniProt P51955)
NEK6 (human) = NEK6 (human) (UniProt Q9HC98)
PAK7 (human) = PAK7 (human) (UniProt Q9P286)
PIM2 (human) = PIM2 (human) (UniProt Q9P1W9)
PLK1 (human) = PLK1 (human) (UniProt P53350)
PRKAA1 or PRKAA2 (rat) = conditions: accession and sequence are those of the human protein
PRKACA (human) = PRKACA (human) (UniProt P17612)
RIPK2 (human) = RIPK2 (human) (UniProt O43353)
RPS6KA1 KD1 KD2 (human) = RPS6KA1 KD1 KD2 (human) (UniProt Q15418)
RPS6KA3 KD1 KD2 (human) = RPS6KA3 KD1 KD2 (human) (UniProt P51812)
RPS6KA5 KD1 KD2 (human) = RPS6KA5 KD1 KD2 (human) (UniProt O75582)
[2] = test system: RPS6KB1 (human), P23443 [T412E]
SRC (human) = SRC (human) (UniProt P12931)
SYK (human) = SYK (human) (UniProt P43405)
TTK (human) = TTK (human) (UniProt P33981)

Sequence of INSRR (human) (P14616 whole entry, looked up): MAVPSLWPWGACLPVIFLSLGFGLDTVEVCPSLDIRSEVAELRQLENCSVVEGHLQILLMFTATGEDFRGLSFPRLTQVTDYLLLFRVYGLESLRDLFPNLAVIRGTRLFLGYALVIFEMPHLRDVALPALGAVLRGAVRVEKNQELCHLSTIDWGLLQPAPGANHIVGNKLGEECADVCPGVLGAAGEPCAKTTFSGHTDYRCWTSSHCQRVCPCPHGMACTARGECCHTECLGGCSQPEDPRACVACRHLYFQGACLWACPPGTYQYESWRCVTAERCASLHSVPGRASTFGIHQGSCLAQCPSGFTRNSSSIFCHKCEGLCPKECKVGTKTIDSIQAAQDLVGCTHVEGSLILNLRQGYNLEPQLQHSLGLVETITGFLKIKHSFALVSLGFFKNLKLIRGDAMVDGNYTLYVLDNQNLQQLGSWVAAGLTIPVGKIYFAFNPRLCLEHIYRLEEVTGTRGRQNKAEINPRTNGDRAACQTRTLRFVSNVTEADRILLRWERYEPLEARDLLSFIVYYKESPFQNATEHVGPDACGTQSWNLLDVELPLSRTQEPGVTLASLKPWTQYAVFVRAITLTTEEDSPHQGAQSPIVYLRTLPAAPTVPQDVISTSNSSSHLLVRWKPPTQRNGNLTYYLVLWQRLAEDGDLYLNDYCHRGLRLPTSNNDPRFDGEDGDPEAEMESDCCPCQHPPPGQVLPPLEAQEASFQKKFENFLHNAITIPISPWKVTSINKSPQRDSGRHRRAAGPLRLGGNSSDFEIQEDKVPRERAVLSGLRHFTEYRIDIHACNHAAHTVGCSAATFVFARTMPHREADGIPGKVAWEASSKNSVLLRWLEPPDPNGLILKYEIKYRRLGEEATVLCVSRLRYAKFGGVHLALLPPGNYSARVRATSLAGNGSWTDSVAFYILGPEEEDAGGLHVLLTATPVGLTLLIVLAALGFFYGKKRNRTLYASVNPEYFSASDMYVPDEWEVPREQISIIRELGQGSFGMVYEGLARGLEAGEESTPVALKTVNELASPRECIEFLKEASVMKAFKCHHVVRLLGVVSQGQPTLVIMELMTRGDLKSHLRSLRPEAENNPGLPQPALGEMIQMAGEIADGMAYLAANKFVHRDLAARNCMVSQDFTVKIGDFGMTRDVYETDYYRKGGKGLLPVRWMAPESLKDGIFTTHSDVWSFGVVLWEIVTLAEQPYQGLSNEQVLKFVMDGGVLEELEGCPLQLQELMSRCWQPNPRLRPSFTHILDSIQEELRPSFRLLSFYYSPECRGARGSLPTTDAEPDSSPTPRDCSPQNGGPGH
Sequence of MAPK14 (human) (Q16539 whole entry, looked up): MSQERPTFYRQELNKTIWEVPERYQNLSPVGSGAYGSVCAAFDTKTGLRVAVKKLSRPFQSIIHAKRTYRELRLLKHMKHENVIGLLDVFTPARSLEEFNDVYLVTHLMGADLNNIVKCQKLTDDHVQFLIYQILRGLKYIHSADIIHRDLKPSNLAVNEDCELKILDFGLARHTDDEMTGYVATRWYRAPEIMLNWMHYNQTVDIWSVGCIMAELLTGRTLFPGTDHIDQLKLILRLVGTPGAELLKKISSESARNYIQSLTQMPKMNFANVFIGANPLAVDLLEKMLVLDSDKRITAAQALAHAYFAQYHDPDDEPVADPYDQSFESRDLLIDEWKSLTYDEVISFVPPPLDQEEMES
Sequence of RPS6KB1 (human), P23443 [T412E] (P23443 whole entry T412E, looked up): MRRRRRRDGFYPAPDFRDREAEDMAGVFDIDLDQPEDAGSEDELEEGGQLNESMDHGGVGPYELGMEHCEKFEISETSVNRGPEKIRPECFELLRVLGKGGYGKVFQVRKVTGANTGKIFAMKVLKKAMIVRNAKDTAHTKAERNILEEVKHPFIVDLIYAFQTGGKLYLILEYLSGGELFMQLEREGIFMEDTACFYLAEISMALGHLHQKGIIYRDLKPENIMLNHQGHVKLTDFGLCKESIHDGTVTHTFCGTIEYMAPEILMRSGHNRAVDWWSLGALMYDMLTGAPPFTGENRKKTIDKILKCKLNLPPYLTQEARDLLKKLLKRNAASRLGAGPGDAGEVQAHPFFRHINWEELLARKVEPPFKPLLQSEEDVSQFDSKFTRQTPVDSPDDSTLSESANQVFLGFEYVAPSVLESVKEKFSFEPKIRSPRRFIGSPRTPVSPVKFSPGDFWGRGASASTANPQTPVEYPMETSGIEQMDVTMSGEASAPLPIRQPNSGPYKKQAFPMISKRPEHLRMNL
Sequence of CSK (human) (P41240 whole entry, looked up): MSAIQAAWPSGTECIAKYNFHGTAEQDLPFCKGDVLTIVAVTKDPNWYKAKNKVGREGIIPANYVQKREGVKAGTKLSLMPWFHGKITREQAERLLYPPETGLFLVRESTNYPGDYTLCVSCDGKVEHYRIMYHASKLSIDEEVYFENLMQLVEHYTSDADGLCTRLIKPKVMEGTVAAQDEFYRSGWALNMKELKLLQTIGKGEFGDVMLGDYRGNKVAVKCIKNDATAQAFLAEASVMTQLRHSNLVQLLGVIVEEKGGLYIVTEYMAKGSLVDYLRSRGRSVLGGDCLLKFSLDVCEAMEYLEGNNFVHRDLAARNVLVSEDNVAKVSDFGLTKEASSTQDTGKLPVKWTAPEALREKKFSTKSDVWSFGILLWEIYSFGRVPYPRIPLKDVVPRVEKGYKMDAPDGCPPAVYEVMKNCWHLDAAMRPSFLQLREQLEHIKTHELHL
Sequence of CSNK1D (human) (P48730 whole entry, looked up): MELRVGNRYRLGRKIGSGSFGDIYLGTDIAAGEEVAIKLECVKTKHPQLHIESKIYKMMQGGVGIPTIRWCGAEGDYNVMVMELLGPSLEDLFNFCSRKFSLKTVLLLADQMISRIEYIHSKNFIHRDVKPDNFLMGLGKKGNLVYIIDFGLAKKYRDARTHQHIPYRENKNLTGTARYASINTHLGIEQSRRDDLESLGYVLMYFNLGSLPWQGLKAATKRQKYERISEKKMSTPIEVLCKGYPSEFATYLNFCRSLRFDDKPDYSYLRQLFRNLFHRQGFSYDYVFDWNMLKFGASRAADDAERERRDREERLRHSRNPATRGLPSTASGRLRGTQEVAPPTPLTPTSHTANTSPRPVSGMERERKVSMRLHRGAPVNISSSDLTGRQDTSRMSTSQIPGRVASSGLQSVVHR
Sequence of RIPK2 (human) (O43353 whole entry, looked up): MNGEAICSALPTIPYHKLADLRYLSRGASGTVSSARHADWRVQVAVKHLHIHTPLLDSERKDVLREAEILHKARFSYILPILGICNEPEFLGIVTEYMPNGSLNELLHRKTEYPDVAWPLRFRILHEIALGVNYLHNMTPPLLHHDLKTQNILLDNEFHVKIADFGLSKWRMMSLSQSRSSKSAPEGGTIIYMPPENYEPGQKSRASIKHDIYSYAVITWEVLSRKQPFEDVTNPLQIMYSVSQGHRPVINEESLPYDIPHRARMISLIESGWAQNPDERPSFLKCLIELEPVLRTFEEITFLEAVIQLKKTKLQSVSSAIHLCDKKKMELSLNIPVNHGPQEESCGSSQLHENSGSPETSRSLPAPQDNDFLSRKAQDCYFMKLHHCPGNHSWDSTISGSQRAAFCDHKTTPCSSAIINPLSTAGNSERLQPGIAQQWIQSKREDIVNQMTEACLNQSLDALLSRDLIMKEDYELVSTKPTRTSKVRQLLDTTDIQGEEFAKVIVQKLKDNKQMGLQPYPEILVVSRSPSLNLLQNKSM
Sequence of BTK (human) (Q06187 whole entry, looked up): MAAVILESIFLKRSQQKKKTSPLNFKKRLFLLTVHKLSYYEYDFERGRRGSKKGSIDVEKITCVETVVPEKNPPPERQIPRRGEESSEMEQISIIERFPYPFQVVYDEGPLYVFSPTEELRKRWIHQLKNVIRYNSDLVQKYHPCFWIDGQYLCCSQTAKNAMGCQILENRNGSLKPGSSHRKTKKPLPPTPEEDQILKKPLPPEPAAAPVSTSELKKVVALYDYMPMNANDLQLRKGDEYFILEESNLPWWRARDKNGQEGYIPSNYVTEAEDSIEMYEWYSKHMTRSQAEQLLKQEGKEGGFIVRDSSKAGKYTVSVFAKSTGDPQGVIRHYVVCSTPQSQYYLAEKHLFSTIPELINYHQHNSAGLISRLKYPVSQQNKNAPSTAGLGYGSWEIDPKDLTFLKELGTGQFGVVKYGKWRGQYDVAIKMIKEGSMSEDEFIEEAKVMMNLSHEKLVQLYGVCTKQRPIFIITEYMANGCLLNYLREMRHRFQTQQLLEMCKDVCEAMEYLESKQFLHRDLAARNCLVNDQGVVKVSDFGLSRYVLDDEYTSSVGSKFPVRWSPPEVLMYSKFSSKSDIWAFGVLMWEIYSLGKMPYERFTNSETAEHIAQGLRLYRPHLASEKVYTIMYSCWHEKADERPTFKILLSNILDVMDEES
Sequence of AKT2 (human), P31751 [S474D] (P31751 whole entry S474D, looked up): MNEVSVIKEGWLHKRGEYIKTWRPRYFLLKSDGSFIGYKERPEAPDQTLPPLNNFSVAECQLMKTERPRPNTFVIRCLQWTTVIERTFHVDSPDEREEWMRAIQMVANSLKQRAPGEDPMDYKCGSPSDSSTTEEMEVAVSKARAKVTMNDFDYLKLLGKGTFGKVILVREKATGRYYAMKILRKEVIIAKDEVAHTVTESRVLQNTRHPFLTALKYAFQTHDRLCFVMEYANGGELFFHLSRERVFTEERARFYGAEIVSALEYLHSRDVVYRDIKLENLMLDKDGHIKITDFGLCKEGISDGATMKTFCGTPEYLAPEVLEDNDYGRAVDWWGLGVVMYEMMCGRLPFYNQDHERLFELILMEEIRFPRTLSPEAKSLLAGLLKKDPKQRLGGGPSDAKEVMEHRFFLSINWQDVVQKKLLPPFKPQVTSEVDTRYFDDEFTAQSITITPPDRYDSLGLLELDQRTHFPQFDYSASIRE

## CC1=C(CO)C(=O)O[C@@H]([C@@H](C)[C@H]2CC[C@H]3[C@@H]4C[C@H]5O[C@]56[C@@H](O)C=CC(=O)[C@]6(C)C4CC[C@]23C)C1 (stereo partly specified)
[1]; compound 0.1 µM
  residual activity: 92%
[1]; compound 1.0 µM
  residual activity: 72%
[1]; compound 10.0 µM
  residual activity: 10%
BTK (human); compound 0.1 µM
  residual activity: 118%
BTK (human); compound 1.0 µM
  residual activity: 115%
BTK (human); compound 10.0 µM
  residual activity: 110%
CDK2 CCNA2 (human); compound 0.1 µM
  residual activity: 108%
CDK2 CCNA2 (human); compound 1.0 µM
  residual activity: 113%
CDK2 CCNA2 (human); compound 10.0 µM
  residual activity: 117%
CHEK2 (human); compound 0.1 µM
  residual activity: 130%
CHEK2 (human); compound 1.0 µM
  residual activity: 116%
CHEK2 (human); compound 10.0 µM
  residual activity: 61%
CSK (human); compound 0.1 µM
  residual activity: 112%
CSK (human); compound 1.0 µM
  residual activity: 109%
CSK (human); compound 10.0 µM
  residual activity: 111%
CSNK1D (human); compound 0.1 µM
  residual activity: 92%
CSNK1D (human); compound 1.0 µM
  residual activity: 103%
CSNK1D (human); compound 10.0 µM
  residual activity: 105%
EPHA4 (human); compound 0.1 µM
  residual activity: 107%
EPHA4 (human); compound 1.0 µM
  residual activity: 98%
EPHA4 (human); compound 10.0 µM
  residual activity: 109%
EPHB1 (human); compound 0.1 µM
  residual activity: 105%
EPHB1 (human); compound 1.0 µM
  residual activity: 101%
EPHB1 (human); compound 10.0 µM
  residual activity: 107%
EPHB4 (human); compound 0.1 µM
  residual activity: 120%
EPHB4 (human); compound 1.0 µM
  residual activity: 119%
EPHB4 (human); compound 10.0 µM
  residual activity: 105%
FLT1 (human); compound 0.1 µM
  residual activity: 120%
FLT1 (human); compound 10.0 µM
  residual activity: 30%
IKBKB (human); compound 0.1 µM
  residual activity: 103%
IKBKB (human); compound 1.0 µM
  residual activity: 103%
IKBKB (human); compound 10.0 µM
  residual activity: 72%
IKBKE (human); compound 0.1 µM
  residual activity: 96%
IKBKE (human); compound 1.0 µM
  residual activity: 97%
IKBKE (human); compound 10.0 µM
  residual activity: 61%
INSRR (human); compound 0.1 µM
  residual activity: 99%
INSRR (human); compound 1.0 µM
  residual activity: 97%
INSRR (human); compound 10.0 µM
  residual activity: 77%
MAP2K1 (human); compound 0.1 µM
  residual activity: 100%
MAP2K1 (human); compound 10.0 µM
  residual activity: 111%
MAPK1 (human)
  residual activity: 111%
MAPK14 (human); compound 0.1 µM
  residual activity: 101%
MAPK14 (human); compound 1.0 µM
  residual activity: 92%
MAPK14 (human); compound 10.0 µM
  residual activity: 95%
MAPK15 (human); compound 1.0 µM
  residual activity: 115%
MAPK15 (human); compound 10.0 µM
  residual activity: 72%
MAPK3 (human); compound 0.1 µM
  residual activity: 99%
MAPK3 (human); compound 1.0 µM
  residual activity: 100%
MAPK3 (human); compound 10.0 µM
  residual activity: 109%
MAPKAPK3 (human); compound 0.1 µM
  residual activity: 120%
MAPKAPK3 (human); compound 1.0 µM
  residual activity: 85%
MAPKAPK3 (human); compound 10.0 µM
  residual activity: 47%
MKNK2 (human); compound 0.1 µM
  residual activity: 99%
MKNK2 (human); compound 10.0 µM
  residual activity: 126%
NEK2 (human); compound 0.1 µM
  residual activity: 93%
NEK2 (human); compound 1.0 µM
  residual activity: 94%
NEK2 (human); compound 10.0 µM
  residual activity: 82%
NEK6 (human); compound 1.0 µM
  residual activity: 102%
NEK6 (human); compound 10.0 µM
  residual activity: 111%
PAK7 (human); compound 0.1 µM
  residual activity: 102%
PAK7 (human); compound 1.0 µM
  residual activity: 116%
PAK7 (human); compound 10.0 µM
  residual activity: 111%
PIM2 (human); compound 0.1 µM
  residual activity: 96%
PIM2 (human); compound 1.0 µM
  residual activity: 102%
PIM2 (human); compound 10.0 µM
  residual activity: 97%
PLK1 (human); compound 0.1 µM
  residual activity: 105%
PLK1 (human); compound 1.0 µM
  residual activity: 101%
PLK1 (human); compound 10.0 µM
  residual activity: 118%
PRKAA1 or PRKAA2 (rat); compound 0.1 µM
  residual activity: 99%
PRKAA1 or PRKAA2 (rat); compound 1.0 µM
  residual activity: 100%
PRKAA1 or PRKAA2 (rat); compound 10.0 µM
  residual activity: 90%
PRKACA (human); compound 0.1 µM
  residual activity: 112%
PRKACA (human); compound 1.0 µM
  residual activity: 109%
PRKACA (human); compound 10.0 µM
  residual activity: 113%
RIPK2 (human); compound 0.1 µM
  residual activity: 95%
RIPK2 (human); compound 1.0 µM
  residual activity: 108%
RIPK2 (human); compound 10.0 µM
  residual activity: 110%
RPS6KA1 KD1 KD2 (human); compound 0.1 µM
  residual activity: 109%
RPS6KA1 KD1 KD2 (human); compound 1.0 µM
  residual activity: 101%
RPS6KA1 KD1 KD2 (human); compound 10.0 µM
  residual activity: 105%
RPS6KA3 KD1 KD2 (human); compound 0.1 µM
  residual activity: 114%
RPS6KA3 KD1 KD2 (human); compound 1.0 µM
  residual activity: 98%
RPS6KA3 KD1 KD2 (human); compound 10.0 µM
  residual activity: 74%
RPS6KA5 KD1 KD2 (human); compound 0.1 µM
  residual activity: 104%
RPS6KA5 KD1 KD2 (human); compound 1.0 µM
  residual activity: 101%
RPS6KA5 KD1 KD2 (human); compound 10.0 µM
  residual activity: 99%
[2]; compound 0.1 µM
  residual activity: 99%
[2]; compound 1.0 µM
  residual activity: 97%
[2]; compound 10.0 µM
  residual activity: 69%
SRC (human); compound 0.1 µM
  residual activity: 114%
SRC (human); compound 1.0 µM
  residual activity: 113%
SYK (human); compound 1.0 µM
  residual activity: 115%
SYK (human); compound 10.0 µM
  residual activity: 130%
TTK (human); compound 0.1 µM
  residual activity: 111%
TTK (human); compound 1.0 µM
  residual activity: 112%
TTK (human); compound 10.0 µM
  residual activity: 94%
